Broadly, the IC50 is the concentration at which inhibition is half-maximal.

Some results are limits rather than exact numbers.

LRRK2 wild-type, sequence (Q5S007 970-2527): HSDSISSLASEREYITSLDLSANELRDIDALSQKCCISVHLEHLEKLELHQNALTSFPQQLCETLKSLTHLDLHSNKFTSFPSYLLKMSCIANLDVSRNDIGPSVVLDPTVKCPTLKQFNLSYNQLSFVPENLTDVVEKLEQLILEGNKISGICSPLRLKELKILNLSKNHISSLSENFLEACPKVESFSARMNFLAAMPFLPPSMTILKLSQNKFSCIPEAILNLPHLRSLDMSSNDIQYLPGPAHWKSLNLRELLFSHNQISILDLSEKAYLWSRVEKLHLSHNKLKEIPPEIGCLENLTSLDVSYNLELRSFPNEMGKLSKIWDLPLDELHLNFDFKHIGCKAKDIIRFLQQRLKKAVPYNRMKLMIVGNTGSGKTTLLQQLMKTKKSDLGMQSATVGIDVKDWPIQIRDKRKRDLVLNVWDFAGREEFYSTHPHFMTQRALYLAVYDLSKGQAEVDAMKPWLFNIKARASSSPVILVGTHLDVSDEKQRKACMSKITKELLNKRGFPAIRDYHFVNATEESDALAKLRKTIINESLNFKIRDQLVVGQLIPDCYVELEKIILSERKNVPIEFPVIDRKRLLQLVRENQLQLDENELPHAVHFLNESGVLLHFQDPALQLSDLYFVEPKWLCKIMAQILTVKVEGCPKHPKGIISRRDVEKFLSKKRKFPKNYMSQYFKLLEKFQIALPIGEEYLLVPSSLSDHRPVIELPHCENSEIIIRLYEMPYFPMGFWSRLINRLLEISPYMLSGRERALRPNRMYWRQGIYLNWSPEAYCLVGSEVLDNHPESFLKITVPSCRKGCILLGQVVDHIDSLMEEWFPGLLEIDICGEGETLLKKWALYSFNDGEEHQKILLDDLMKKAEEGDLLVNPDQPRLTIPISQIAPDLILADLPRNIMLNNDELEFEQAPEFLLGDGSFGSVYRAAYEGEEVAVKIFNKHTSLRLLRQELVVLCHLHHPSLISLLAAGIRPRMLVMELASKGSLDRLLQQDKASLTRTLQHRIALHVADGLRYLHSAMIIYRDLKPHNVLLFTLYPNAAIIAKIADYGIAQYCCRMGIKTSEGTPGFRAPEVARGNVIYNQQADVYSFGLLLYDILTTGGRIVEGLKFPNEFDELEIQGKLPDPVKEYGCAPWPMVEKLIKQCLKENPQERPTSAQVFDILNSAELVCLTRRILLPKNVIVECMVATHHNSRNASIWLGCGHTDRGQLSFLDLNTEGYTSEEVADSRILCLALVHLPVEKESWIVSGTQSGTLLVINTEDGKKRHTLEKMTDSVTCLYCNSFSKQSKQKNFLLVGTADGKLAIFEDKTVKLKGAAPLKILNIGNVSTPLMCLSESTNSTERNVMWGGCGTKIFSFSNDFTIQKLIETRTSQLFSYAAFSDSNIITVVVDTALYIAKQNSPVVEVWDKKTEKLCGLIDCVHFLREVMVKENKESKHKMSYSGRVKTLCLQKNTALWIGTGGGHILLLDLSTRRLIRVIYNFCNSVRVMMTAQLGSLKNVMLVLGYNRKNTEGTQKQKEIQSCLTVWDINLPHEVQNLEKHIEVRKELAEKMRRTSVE

The target of this experiment is LRRK2 wild-type (Homo sapiens (Human), UniProt Q5S007). Nature of the experiment: LanthaScreen LRRK2 Biochemical Activity Assay. Conditions: human recombinant LRRK2 (amino acids 970-2527) wild-type, ATP 57 μM, TR-FRET; read-out: IC50 (nM), inhibition of LRRK2 wild-type kinase activity. How it is done:
The ability of a compound of Formula (I) to inhibit LRRK2 kinase activity is measured using a LanthaScreen™ kinase activity assay. In general, in a LanthaScreen™ kinase activity assay, kinase, fluorescein-labeled substrate, and ATP are allowed to react. Then EDTA (to stop the reaction) and terbium-labeled antibody (to detect phosphorylated product) are added. In a LanthaScreen™ kinase reaction, the antibody associates with the phosphorylated fluorescein labeled substrate resulting in an increased TR-FRET value. The TR-FRET value is a dimensionless number that is calculated as the ratio of the acceptor (fluorescein) signal to the donor (terbium) signal. The amount of antibody that is bound to the tracer is directly proportional to the amount of phosphorylated substrate present, and in this manner, kinase activity can be detected and measured by an increase in the TR-FRET value. Accordingly, in this Example, enzyme reactions are carried out in a kinase reaction buffer in the presence or absence of representative compounds of Formula (I) at various concentrations in 384-well plate at room temperature for 60 minutes. The kinase reaction buffer contains human recombinant LRRK2 protein (amino acids 970-2527, 5 nM), ATP (57 μM for LRRK2 wild-type, 134 μM for G2019S mutant protein), Fluorescein-LRRKtide substrate (0.4 mM), 50 mM Tris pH 7.5, 10 mM MgCl2, 1 mM EGTA, 0.01% Brij™-35, and 2 mM DTT. The final reaction volume for each reaction is 10 μL. The reactions are initated by adding the substrate and stopped by the addition of 10 μL of a TR-FRET dilution buffer supplemented with a kinase quench buffer (10 mM EDTA final) and Tb-anti-pLRRKtide (2 nM final). The plate is further incubated at room temperature for another 60 minutes, and the fluorescent signals are read on an EnVision® multilabel plate reader (PerkinElmer, Waltham, MA) with excitation at 340 nm and emission at 495 and 520 nm. The assay signal is determined as a ratio of FRET-specific signal measured with emission filter at 520 nm to that of the signal measured with Tb-specific emission filter at 495 nm. IC50 values for compound-mediated enzyme inhibition are calculated using appropriate programs in GraphPad Prism software by plotting the logarithm of the compound concentrations versus percent inhibition. All reagents are purchased from Thermo Fisher Scientific.
In general terms: In TR-FRET formats the signal depends on donor and acceptor labels being close together.
Take `Clc1ccn2ncc(-c3cccc(C4CCCNC4)n3)c2c1` (racemic) [Example 5, Rac-5-chloro-3-[6-(3-piperidyl)-2-pyridyl]pyrazolo[1,5-a]pyridine]: the IC50 lay within 11 to 100 nM.

On to `Clc1ccn2ncc(-c3cccc([C@@H]4CCCNC4)n3)c2c1` (single isomer, unassigned) [Example 6, (+)-5-chloro-3-(6-(piperidin-3-yl)pyridin-2-yl)pyrazolo[1,5-a]pyridine], for which the IC50 lay in the range of 101 to 400 nM. For `Clc1ccn2ncc(-c3cccc([C@H]4CCCNC4)n3)c2c1` (single isomer, unassigned) [Example 7, (−)-5-chloro-3-(6-(piperidin-3-yl)pyridin-2-yl)pyrazolo[1,5-a]pyridine], the IC50 is ≤ 10 nM.

On to `c1cc(-c2cnn3ccccc23)nc(C2CCNCC2)c1` [Example 1, 3-[6-(4-piperidyl)-2-pyridyl]pyrazolo[1,5-a]pyridine], for which the IC50 lay in the range of 101 to 400 nM.

Regarding `CN1CCC(c2cccc(-c3cnn4ccccc34)n2)CC1` [Example 2, 3-[6-(1-methyl-4-piperidyl)-2-pyridyl]pyrazolo[1,5-a]pyridine], the IC50 lay in the range of 101 to 400 nM. For the compound `c1cc(-c2cnn3ccccc23)nc(C2CCNC2)c1` (centres unmarked) [Example 3, 3-(6-pyrrolidin-3-yl-2-pyridyl)pyrazolo[1,5-a]pyridine], the IC50 lay within 101 to 400 nM. Then `Clc1ccn2ncc(-c3cccc(C4CCNC4)n3)c2c1` (centres unmarked) [Example 4, 5-chloro-3-(6-(pyrrolidin-3-yl)pyridin-2-yl)pyrazolo[1,5-a]pyridine], with 11 to 100 nM. Then `Brc1ccn2ncc(-c3cccc(C4CCCNC4)n3)c2c1` (centres unmarked) [Example 8, 5-bromo-3-[6-(3-piperidyl)-2-pyridyl]pyrazolo[1,5-a]pyridine], with 11 to 100 nM; and `Cc1ccn2ncc(-c3cccc(C4CCCNC4)n3)c2c1` (centres unmarked) [Example 9, 5-methyl-3-[6-(3-piperidyl)-2-pyridyl]pyrazolo[1,5-a]pyridine], with 11 to 100 nM. The result for `FC(F)(F)c1ccn2ncc(-c3cccc(C4CCCNC4)n3)c2c1` (centres unmarked) [Example 10, 3-[6-(3-piperidyl)-2-pyridyl]-5-(trifluoromethyl)pyrazolo[1,5-a]pyridine] reads 11 to 100 nM. In the case of `COc1ccn2ncc(-c3cccc(C4CCCNC4)n3)c2c1` (centres unmarked) [Example 11, 5-methoxy-3-[6-(3-piperidyl)-2-pyridyl]pyrazolo[1,5-a]pyridine], the IC50 lay within 11 to 100 nM. As to `Oc1ccn2ncc(-c3cccc(C4CCCNC4)n3)c2c1` (centres unmarked) [Example 12, 3-(6-(piperidin-3-yl)pyridin-2-yl)pyrazolo[1,5-a]pyridin-5-ol], the IC50 was in the range of 101 to 400 nM. In the case of `CC(C)Oc1ccn2ncc(-c3cccc(C4CCCNC4)n3)c2c1` (centres unmarked) [Example 13, 5-isopropoxy-3-[6-(3-piperidyl)-2-pyridyl]pyrazolo[1,5-a]pyridine], the IC50 lay in the range of 11 to 100 nM. Then `c1cc(-c2cnn3ccc(OCC4CC4)cc23)nc(C2CCCNC2)c1` (centres unmarked) [Example 14, 5-(cyclopropylmethoxy)-3-[6-(3-piperidyl)-2-pyridyl]pyrazolo[1,5-a]pyridine], with 101 to 400 nM. As for `c1cc(-c2cnn3ccc(OCC4COC4)cc23)nc(C2CCCNC2)c1` (centres unmarked) [Example 15, 5-(oxetan-3-ylmethoxy)-3-[6-(3-piperidyl)-2-pyridyl]pyrazolo[1,5-a]pyridine], the IC50 lay within 101 to 400 nM. The result for `c1cc(-c2cnn3ccc(N4CCOCC4)cc23)nc(C2CCCNC2)c1` (centres unmarked) [Example 16, 4-[3-[6-(3-piperidyl)-2-pyridyl]pyrazolo[1,5-a]pyridin-5-yl]morpholine] reads 101 to 400 nM; that for `N#Cc1ccn2ncc(-c3cccc(C4CCCNC4)n3)c2c1` (centres unmarked) [Example 17, 3-[6-(3-piperidyl)-2-pyridyl]pyrazolo[1,5-a]pyridine-5-carbonitrile], 11 to 100 nM. Then `c1cc(-c2cnn3ccc(C4CC4)cc23)nc(C2CCCNC2)c1` (centres unmarked) [Example 18, 5-cyclopropyl-3-[6-(3-piperidyl)-2-pyridyl]pyrazolo[1,5-a]pyridine], with 11 to 100 nM; and `Nc1ccn2ncc(-c3cccc(C4CCCNC4)n3)c2c1` (centres unmarked) [Example 19, 3-[6-(3-piperidyl)-2-pyridyl]pyrazolo[1,5-a]pyridin-5-amine], with 101 to 400 nM. The result for `CNc1ccn2ncc(-c3cccc(C4CCCNC4)n3)c2c1` (centres unmarked) [Example 20, N-methyl-3-[6-(3-piperidyl)-2-pyridyl]pyrazolo[1,5-a]pyridin-5-amine] reads ≤ 10 nM. For `CCNc1ccn2ncc(-c3cccc(C4CCCNC4)n3)c2c1` (centres unmarked) [Example 21, N-ethyl-3-[6-(3-piperidyl)-2-pyridyl]pyrazolo[1,5-a]pyridin-5-amine], the IC50 was in the range of 11 to 100 nM.

For `CS(=O)(=O)NCCC(=O)Nc1ccn2ncc(-c3cccc(C4CCCNC4)n3)c2c1` (centres unmarked) [Example 22, 3-(methylsulfonamido)-N-(3-(6-(piperidin-3-yl)pyridin-2-yl)pyrazolo[1,5-a]pyridin-5-yl)propanamide], the IC50 was 11 to 100 nM.

Regarding `CS(=O)(=O)NCCC(=O)Nc1ccc2c(-c3cccc(C4CCCNC4)n3)cnn2c1` (centres unmarked) [Example 23, 3-(methanesulfonamido)-N-[3-[6-(3-piperidyl)-2-pyridyl]pyrazolo[1,5-a]pyridin-6-yl]propanamide], the IC50 lay within 101 to 400 nM.

For `CS(=O)(=O)NCCNC(=O)c1ccc2c(-c3cccc(C4CCCNC4)n3)cnn2c1` (centres unmarked) [Example 24, N-[2-(methanesulfonamido)ethyl]-3-[6-(3-piperidyl)-2-pyridyl]pyrazolo[1,5-a]pyridine-6-carboxamide], the IC50 fell in the range of 101 to 400 nM. Then `CS(=O)(=O)NCC(=O)N1CCCC(c2cccc(-c3cnn4ccccc34)n2)C1` (centres unmarked) [Example 25, N-[2-oxo-2-[3-(6-pyrazolo[1,5-a]pyridin-3-yl-2-pyridyl)-1-piperidyl]ethyl]methanesulfonamide], with 101 to 400 nM; and `CS(=O)(=O)N1CCCC(c2cccc(-c3cnn4ccccc34)n2)C1` (centres unmarked) [Example 26, 3-[6-(1-methylsulfonyl-3-piperidyl)-2-pyridyl]pyrazolo[1,5-a]pyridine], with 101 to 400 nM; and `COc1cc(-c2cnn3ccccc23)nc(C2CCCNC2)c1` (centres unmarked) [Example 27, 3-(4-methoxy-6-(piperidin-3-yl)pyridin-2-yl)pyrazolo[1,5-a]pyridine], with 101 to 400 nM.

Take `Clc1cc(-c2cnn3ccccc23)nc(C2CCCNC2)c1` (centres unmarked) [Example 28, 3-(4-chloro-6-(piperidin-3-yl)pyridin-2-yl)pyrazolo[1,5-a]pyridine]: the IC50 fell in the range of 11 to 100 nM. The result for `Clc1ccc(-c2cnn3ccccc23)nc1C1CCCNC1` (centres unmarked) [Example 29, 3-[5-chloro-6-(3-piperidyl)-2-pyridyl]pyrazolo[1,5-a]pyridine] reads 11 to 100 nM; that for `Clc1ccc(C2CCCNC2)nc1-c1cnn2ccccc12` (centres unmarked) [Example 30, 3-(3-chloro-6-(piperidin-3-yl)pyridin-2-yl)pyrazolo[1,5-a]pyridine], 101 to 400 nM.

Consider `Fc1cc(-c2cnn3ccccc23)nc(C2CCCNC2)c1` (centres unmarked) [Example 31, 3-[4-fluoro-6-(3-piperidyl)-2-pyridyl]pyrazolo[1,5-a]pyridine], for which the IC50 was 101 to 400 nM.

As for `Fc1ccc(C2CCCNC2)nc1-c1cnn2ccccc12` (centres unmarked) [Example 32, 3-[3-fluoro-6-(3-piperidyl)-2-pyridyl]pyrazolo[1,5-a]pyridine], the IC50 fell in the range of 11 to 100 nM. Then `Fc1ccc(-c2cnn3ccccc23)nc1C1CCCNC1` (centres unmarked) [Example 33, 3-[5-fluoro-6-(3-piperidyl)-2-pyridyl]pyrazolo[1,5-a]pyridine], with 101 to 400 nM; and `Clc1cc(-c2cnn3ccc(Cl)cc23)nc(C2CCCNC2)c1` (centres unmarked) [Example 34, 5-chloro-3-[4-chloro-6-(3-piperidyl)-2-pyridyl]pyrazolo[1,5-a]pyridine], with 11 to 100 nM; and `Fc1cc(-c2cnn3ccc(Cl)cc23)nc(C2CCCNC2)c1` (centres unmarked) [Example 35], with 11 to 100 nM. Turning to `FC(F)(F)c1ccn2ncc(-c3cc(Cl)cc(C4CCCNC4)n3)c2c1` (centres unmarked) [Example 36, 3-(4-chloro-6-(piperidin-3-yl)pyridin-2-yl)-5-(trifluoromethyl)pyrazolo[1,5-a]pyridine], the IC50 was 11 to 100 nM. Consider `c1cc(-c2cnn3ccccc23)nc(N2CCNCC2)c1` [Example 37, 3-(6-piperazin-1-yl-2-pyridyl)pyrazolo[1,5-a]pyridine], for which the IC50 is 101 to 400 nM. Then `CNc1ccn2ncc(-c3cccc(N4CCNCC4)n3)c2c1` [Example 38, N-methyl-3-(6-piperazin-1-yl-2-pyridyl)pyrazolo[1,5-a]pyridin-5-amine], with 11 to 100 nM.
